Changes are numbered by the printed parent chain. Names and notes keep the numbering of the source. “Also recorded” adds a separate entry of the source. Positions of bridges follow the written chain, without caps; N, C: chain ends. Non-standard residues stand in square brackets, D forms with d. Residues, ends and D or L forms follow the SMILES beside them. No end group written: not given here. *: point of attachment. 5FAM = O=C1OC2(c3ccc(O)cc3Oc3cc(O)ccc32)c2ccc(C(=O)*)cc21; S5 = C=CCCC[C@](C)(N)C(=O)O; PEG2 = NCCOCCOCCC(=O)O

The record followed here is paper PMC7949049 (The Journal of Biological Chemistry, 2020).

One experiment concerns the target T1, Rac1·GMPPNP (Homo sapiens, UniProt P63000, Q61L).
T1 construct: Rac1 (pGEX-2T, 1–185, Q61L); GST (cleaved yes); made in house
In words: Direct-binding fluorescence polarization, Rac1. As to conditions: 20 nM FAM-labeled peptide, n = 3, NB = no binding, GTPase up to 100 μM; for Kd: read-out: Kd Rac1·GMPPNP, FP. As to the method: (§1) FP experiments were performed on a BMG Labtech Pherastar fluorimeter at 298 K with excitation at 485 nm and emission at 520 nm as described previously ([34]), using 20 nM FAM-labeled peptide. Plates were read after 30 min incubation at room temperature. Data were fitted to a single-site binding model using nonlinear regression analysis in GraphPad prism 8.4 to obtain Kd values and their standard errors.
Background: In fluorescence polarisation assays a small probe gives low polarisation when free and higher when bound to something large.

A further experiment concerns the target T2, RhoA·GMPPNP (Homo sapiens, UniProt P61586, F25N/Q63L).
T2 construct: RhoA (pGEX-2T, 1–186, F25N/Q63L); GST (cleaved yes); made in house
In words: Direct-binding fluorescence polarization, RhoA. To be noted: 20 nM FAM-labeled peptide, n = 3, NB = no binding, GTPase up to 100 μM; for Kd: read-out: Kd RhoA·GMPPNP, FP. The procedure:
as §1

The next experiment concerns the target T3, RalA·GDP (Homo sapiens, UniProt P11233, Q72L).
T3 construct: RalA (pMAT10, residues 1–184, Q72L); His6-MBP (cleaved yes); made in house
T3 sequence (P11233 1-184 Q72L): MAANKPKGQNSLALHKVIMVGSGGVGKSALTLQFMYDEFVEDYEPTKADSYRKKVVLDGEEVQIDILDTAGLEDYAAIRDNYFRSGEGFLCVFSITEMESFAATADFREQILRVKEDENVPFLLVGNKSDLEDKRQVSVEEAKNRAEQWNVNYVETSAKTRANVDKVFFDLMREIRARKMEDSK
In words: Direct-binding fluorescence polarization, RalA·GDP. To be noted: 20 nM FAM-labeled peptide, n = 3, NB = no binding; for Kd: read-out: Kd RalA·GDP, FP. The procedure:
as §1

For another experiment, the target named is RalA. In words: Direct-binding SPA of RalA to His-tagged RLIP76 RBD variants. As to conditions: 80 nM His-tagged RBD, n = 2; for apparent Kd RalA, direct SPA (Fig. S1): [3H]GTP-labelled RalA titrated, experiment of Fig. S1.
The target in experiment [1] is T4, RalA (residues 1–184, Q72L) (UniProt P11233 1-184, Q72L).
T4 construct: RalA small GTPase, residues 1-184, constitutively active Q72L; Loaded with [3H]GTP for SPA, with GMPPNP or GDP for fluorescence polarisation; also called RalA·GTP; [3H]-GTP RalA; source: expressed from pMAT10 as His6-MBP fusion, cleaved from its tag as described previously
T4 sequence (looked up): T3 sequence (P11233 1-184 Q72L)
In words: scintillation proximity assay (competition); His-tagged wild-type RLIP76 RBD immobilised on SPA beads, fixed [3H]GTP·RalA (100 nM) or [3H]GTP·RalB (250 nM), competitor RBD or peptide titrated; pure competition model, apparent Kd (Ki). To be noted: both partners purified.

Experiment [2] concerns the target T5, RalB (residues 1–185, Q72L) (UniProt P11234 1-185, Q72L).
T5 construct: Loaded with [3H]GTP for SPA, with GMPPNP for ITC, FP and crystallisation; also called RalB·GTP; source: expressed from pMAT10 as His6-MBP fusion, cleaved from its tag as described previously
T5 sequence (looked up): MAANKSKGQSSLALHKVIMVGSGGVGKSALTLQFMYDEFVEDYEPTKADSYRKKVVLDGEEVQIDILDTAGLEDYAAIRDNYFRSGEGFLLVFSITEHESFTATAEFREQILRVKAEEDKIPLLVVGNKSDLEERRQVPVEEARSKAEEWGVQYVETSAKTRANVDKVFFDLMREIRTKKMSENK
The experiment is described as above. To be noted: both partners purified.

In experiment [3] the target is T4, RalA (residues 1–184, Q72L). The description is as above. As to conditions: both partners purified. The source holds these as a separate data set.
The target of experiment [4] is T6, RalA (residues 1-184, Q72L) (UniProt P11233 1-184, Q72L).
T6 construct: RalA small GTPase, residues 1-184, constitutively active Q72L; Loaded with [3H]GTP for the SPAs; also called [3H]GTP-labelled RalA; source: expressed from pMAT10 as His6-MBP fusion, prepared and cleaved from its tags as described previously
T6 sequence (looked up): T3 sequence (P11233 1-184 Q72L)
In words: fluorescence polarisation; direct binding of 20 nM FAM-labelled peptide to varying concentrations of small GTPase; 298 K; read after 30 min at room temperature; single-site binding model; n >= 2. As to conditions: both partners purified.

Experiment [5] deals with T7, RalB (residues 1-185, Q72L) (UniProt P11234 1-185, Q72L).
T7 construct: source: expressed from pMAT10 as His6-MBP fusion, prepared and cleaved from its tags as described previously
T7 sequence (looked up): T5 sequence (looked up)
Described as above. As to conditions: both partners purified.

T2 sequence (P61586 1-186 F25N/Q63L): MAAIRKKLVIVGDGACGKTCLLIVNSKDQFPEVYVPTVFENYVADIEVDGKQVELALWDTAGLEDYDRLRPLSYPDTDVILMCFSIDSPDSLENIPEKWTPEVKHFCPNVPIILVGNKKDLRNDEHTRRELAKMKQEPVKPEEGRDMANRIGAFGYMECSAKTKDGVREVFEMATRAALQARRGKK

In the case of `CC[C@H](C)[C@H](NC(=O)[C@H](CCCNC(=N)N)NC(=O)[C@H](CC(C)C)NC(=O)[C@H](CCC(=O)O)NC(=O)[C@H](CCC(=O)O)NC(=O)[C@H](Cc1c[nH]c2ccccc12)NC(=O)[C@H](CC(C)C)NC(=O)[C@]1(C)CCCC=CCCC[C@](C)(NC(=O)[C@H](CC(C)C)NC(=O)CCOCCOCCNC(=O)c2ccc3c(c2)C(=O)OC32c3ccc(O)cc3Oc3cc(O)ccc32)C(=O)N[C@@H](CCCCN)C(=O)N[C@@H](CCC(=O)O)C(=O)N[C@@H](CCC(=O)O)C(=O)N1)C(=O)N[C@@H](CCCCN)C(=O)N[C@H](C(=O)N[C@@H](C)C(=O)N[C@@H](CCC(=O)O)C(=O)N[C@@H](CCCCN)C(=O)N[C@@H](CCCNC(=N)N)C(=O)N[C@@H](CCCCN)C(=O)N[C@@H](CCCCN)C(=O)N[C@@H](CCCNC(=N)N)C(=O)N[C@@H](CCC(=O)O)C(=O)N[C@@H](C)C(N)=O)[C@@H](C)O` [L-sol] ({5FAM-PEG2}-L[S5]KEE[S5]LWEELRIKTAEKRKKREA-NH2; staple 2-6), at Rac1·GMPPNP, the “Kd Rac1·GMPPNP, FP” value is recorded as “binding was too weak” and the Kd was more than 100 µM. At RhoA·GMPPNP, the “Kd RhoA·GMPPNP, FP” value is on record as “binding was too weak” and the Kd was more than 100 µM. Further, on RalA·GDP, the “Kd RalA·GDP, FP” value was “binding was too weak” and the Kd was more than 100 µM.
For the molecule `CC[C@H](C)[C@H](NC(=O)[C@H](CCCNC(=N)N)NC(=O)[C@H](CC(C)C)NC(=O)[C@H](CCC(=O)O)NC(=O)[C@H](CCC(=O)O)NC(=O)[C@H](Cc1c[nH]c2ccccc12)NC(=O)[C@H](CC(C)C)NC(=O)[C@]1(C)CCCC=CCCC[C@](C)(NC(=O)[C@H](CC(C)C)NC(=O)CCOCCOCCNC(=O)c2ccc3c(c2)C(=O)OC32c3ccc(O)cc3Oc3cc(O)ccc32)C(=O)N[C@@H](CCCCN)C(=O)N[C@@H](CCC(=O)O)C(=O)N[C@@H](Cc2c[nH]cn2)C(=O)N1)C(=O)N[C@@H](CCCCN)C(=O)N[C@H](C(=O)N[C@@H](C)C(=O)N[C@@H](CCC(=O)O)C(=O)N[C@@H](CCCNC(=N)N)C(=O)N[C@@H](CCCNC(=N)N)C(=O)N[C@@H](CCCCN)C(=O)N[C@@H](CCCCN)C(=O)N[C@@H](CCCNC(=N)N)C(=O)N[C@@H](CCC(=O)O)C(=O)N[C@@H](C)C(N)=O)[C@@H](C)O` [HLR-sol] ({5FAM-PEG2}-L[S5]KEH[S5]LWEELRIKTAERRKKREA-NH2; staple 2-6), at Rac1·GMPPNP, the “Kd Rac1·GMPPNP, FP” value was “binding was too weak” and the Kd is more than 100 µM. On RhoA·GMPPNP, the “Kd RhoA·GMPPNP, FP” value is “binding was too weak” and the Kd is more than 100 µM. On RalA·GDP, the “Kd RalA·GDP, FP” value was “binding was too weak” and the Kd was more than 100 µM.
On to “LTTLR mutant: His-tagged RLIP76 RBD consensus sequence lacking the K440P substitution (ETQAGIKEEIRRQEFLLNSLHRDLQGGIKDLSKLTRLWEVTLILRALKRKLREA; also: His-tagged, tag position not given here)”, for which the “apparent Kd RalA, direct SPA (Fig. S1)” value at RalA is given as “no fit could be obtained as binding was too weak”; on RalA (listed as E426L/E427T/Q433T/R434L/T437R) it was “did not bind”.
Consider “ETQAGIKEEIRRQEFLLNSLHRDLQGGIKDLSKWDRAWEVSQILSALRRKLREA [WDASQSR]”, for which the “apparent Kd RalA, direct SPA (Fig. S2)” value at RalA ([3H]GTP-labeled RalA titrated, experiment of Fig. S2) is listed as “no fit could be obtained as binding was too weak; also recorded: did not bind”.

B1: wt-sol stapled peptide (peptide)
chain: L[S5]KEE[S5]LWEEQRIKTAEKRKKREA-NH2
modifications: staple 2-6; N-terminus assumed
SMILES: CC[C@H](C)[C@H](NC(=O)[C@H](CCCNC(=N)N)NC(=O)[C@H](CCC(N)=O)NC(=O)[C@H](CCC(=O)O)NC(=O)[C@H](CCC(=O)O)NC(=O)[C@H](Cc1c[nH]c2ccccc12)NC(=O)[C@H](CC(C)C)NC(=O)[C@]1(C)CCCC=CCCC[C@](C)(NC(=O)[C@@H](N)CC(C)C)C(=O)N[C@@H](CCCCN)C(=O)N[C@@H](CCC(=O)O)C(=O)N[C@@H](CCC(=O)O)C(=O)N1)C(=O)N[C@@H](CCCCN)C(=O)N[C@H](C(=O)N[C@@H](C)C(=O)N[C@@H](CCC(=O)O)C(=O)N[C@@H](CCCCN)C(=O)N[C@@H](CCCNC(=N)N)C(=O)N[C@@H](CCCCN)C(=O)N[C@@H](CCCCN)C(=O)N[C@@H](CCCNC(=N)N)C(=O)N[C@@H](CCC(=O)O)C(=O)N[C@@H](C)C(N)=O)[C@@H](C)O
Turning to B1, the Kd in experiment [1] turned out to be 48.6 µM.

B2: RLIP76 RBD WNASELR mutant (domain or fragment)
chain: ETQAGIKEEIRRQEFLLNSLHRDLQGGIKDLSKWNRAWEVSEILLALRRKLREA
notes: RLIP76 residues 423-446 (helix α2); Selected by CIS display; source: E. coli, recombinant; cleaved from its tag
On to B2, for which the Kd is 10.3 µM in [2] and 2.75 µM in experiment [3].

B3: RLIP76 RBD WDASTAY mutant (domain or fragment)
chain: B2 chain with N35D, E42T, L45A, R48Y
notes: as for B2
For the molecule B3, the Kd in experiment [2] stood at 1.2 µM; in experiment [3] it was 0.53 µM.
Take 5FAM-L[S5]KEH[S5]LWEVLRILTALRRKLREA (staple 2-6): the Kd was 4.68 µM in experiment [4] and 0.159 µM in [5].
In the case of 5FAM-L[S5]KEE[S5]LWEVQRILTALKRKLREA (staple 2-6), the Kd in experiment [4] came out at 17.2 µM; in experiment [5], 4.7 µM.
